Test results reported in patent publication US7419972B2, “2-substituted estra-1,3,5(10)-trien-17-ones as inhibitors of 17β-hydroxy steroid dehydrogenase type 1” (Schering AG, priority 2004, dated 2008).
pIC50: −log10 of the molar value.

Each molecule was assayed against T1, human 17β-hydroxy steroid dehydrogenase type 1 (Homo sapiens, UniProt P14061) (assay: Inhibition of the activity of human 17β-hydroxy steroid dehydrogenase type 1 (3H-labeled substrate conversion, HPLC)). Conditions: not given.
T1 construct: made in house; host or cells: E. coli (suspension of bacterial pellets, enzyme not purified)
T1 sequence (P14061 1-328): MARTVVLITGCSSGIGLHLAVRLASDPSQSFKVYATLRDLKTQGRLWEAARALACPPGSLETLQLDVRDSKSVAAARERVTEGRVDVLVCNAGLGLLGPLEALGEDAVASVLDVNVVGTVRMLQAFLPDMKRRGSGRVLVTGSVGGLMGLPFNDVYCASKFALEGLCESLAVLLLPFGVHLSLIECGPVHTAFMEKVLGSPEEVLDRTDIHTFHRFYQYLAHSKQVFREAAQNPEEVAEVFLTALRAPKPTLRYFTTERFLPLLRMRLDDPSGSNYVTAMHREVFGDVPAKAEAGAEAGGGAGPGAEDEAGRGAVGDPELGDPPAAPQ
Format: biochemical
Description: The test method is well described in the literature [Adamski, J., Sierralta, W. D., Jungblut, P. W., Acta Endocrinol (Copenh.) 121(2) (1989), 161-7] and is depicted below.
Human 17β-hydroxy steroid dehydrogenases (17β-HSDs) are over-expressed in E. coli bacteria as His-Tag proteins or as GST-fusion proteins. The suspensions of the bacterial pellets in isotonic common salt solution are used for the determination of enzyme activities of the 17β-HSDs or for the study of their influence by potential inhibitors (estrogen derivatives).
The measurements are made in double determination and, if necessary, at various concentrations of potential inhibitors (e.g., in determining the IC50 values). In addition to the target enzyme 17β-HSD1, other steroid-metabolizing enzymes are included in the test to study cross reactivities of estrogen derivatives.
The incubation of the samples is carried out at 37° C. in a water bath while being shaken, such that in the control (without substances to be tested), a conversion of about 30% is achieved.
The separation of radiolabeled substrate and product is then carried out, after extraction with 1 ml of reversed phase-(RP-18)-cartridges, by means of HPLC on an RP18 column with acetonitrile:water 1:1 (v/v) as a mobile phase. The radioactivity is detected with the aid of a flow-scintillation counter.
The evaluation of the substrate conversion with and without substances to be tested is performed by the integration of the substrate and product peaks. The conversion of the control normalized to 100% conversion.

Structure (SMILES) | pIC50
C[C@]12CC[C@@H]3c4cc(Cl)c(O)cc4CC[C@H]3[C@@H]1C[C@@H](F)C2=O [Compound 3, 2-Chloro-16α-fluoro-3-hydroxy-estra-1,3,5(10)-trien-17-one] | 7.00
C[C@]12CC[C@@H]3c4cc(Cl)c(O)cc4CC[C@H]3[C@@H]1C[C@H](F)C2=O [Compound 4, 2-Chloro-16β-fluoro-3-hydroxy-estra-1,3,5(10)-trien-17-one] | 7.46
C[C@]12CC[C@@H]3c4cc(CCc5ccccc5)c(O)cc4CC[C@H]3[C@@H]1CCC2=O [Compound 21, 3-Hydroxy-2-(2′-phenyl-ethyl)estra-1,3,5(10)-trien-17-one] | 7.33

Same assay, conditions: enzyme over-expressed in E. coli, bacterial suspension, 37° C.; read-out: 17βHSD1 IC50

Structure (SMILES) | pIC50
CC[C@]12CC[C@@H]3c4cc(Cl)c(O)cc4CC[C@H]3[C@@H]1CCC2=O [Compound 1, 2-Chloro-3-hydroxy-18a-homoestra-1,3,5(10)-trien-17-one] | 6.92
C[C@]12CC[C@@H]3c4cc(Cl)c(O)cc4CC[C@H]3[C@@H]1CCC2=O [Compound 11, 2-Chloro-3-hydroxy-estra-1,3,5(10)-trien-17-one] | 6.85
C[C@]12CC[C@@H]3c4cc(C#N)c(O)cc4CC[C@H]3[C@@H]1CCC2=O [Compound 12, 2-Cyano-3-hydroxy-estra-1,3,5(10)-trien-17-one] | 6.83
C[C@]12CC[C@@H]3c4cc(C#Cc5ccccc5)c(O)cc4CC[C@H]3[C@@H]1CCC2=O [Compound 19, 3-Hydroxy-2-phenylethinyl-estra-1,3,5(10)-trien-17-one] | 7.25
CCc1cc2c(cc1O)CC[C@@H]1[C@@H]2CC[C@]2(C)C(=O)CC[C@@H]12 [Compound 23, 2-Ethyl-3-hydroxy-estra-1,3,5(10)-trien-17-one] | 7.05
